± gives the uncertainty stated by the source.
Assay: TIMS collision cross section in N2 (TIMS CCS N2); higher = larger gas-phase ion size
Details: drift gas: N2 (99.4% N2, 0.6% O2), calibration: Stow et al. 2017 values for Agilent ESI-L Low Concentration Tune Mix, ionization: negative ESI
Method: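 Authentic plant natural product standards (10-50 ppm in 80% methanol) were analysed by UHPLC (BEH C18, 60 °C) coupled to a Bruker timsTOF Pro in negative ESI with N2 drift gas. TIMS collision cross sections were computed from mobility peak apices after calibration with Agilent Tune Mix using Stow et al. reference values. Values are the average of triplicate runs on different days, reported per annotated ion species (deprotonated ion, adducts, dimer, oxidized ion).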

Row | SMILES | TIMS collision cross section in N2 (ion species: [M-H]-) [Å²] | also measured
1 | CCCCCCCCCCCCC(=O)O [n-Tridecanoic acid] | 159.43 ± 0.061 | –
2 | COc1cc(C=CC(=O)O)cc(OC)c1O [Sinapic acid] | 148.27 ± 0.07 | –
3 | O=c1cc(-c2ccccc2O)oc2ccccc12 [2'-Hydroxyflavone] | 149.95 ± 0.12 | –
4 | COc1ccc(C2CC(=O)c3c(O)cc(O)cc3O2)cc1OC (stereo not given) [5,7-dihydroxy-3',4'-dimethoxy-flavanone] | 175.95 ± 0.1 | TIMS collision cross section in N2 (ion species: [2M-H]-): 238.03 ± 0.5 Å²; TIMS collision cross section in N2 (ion species: [M-H+Na+HCO2H]-): 195.74 ± 0.19 Å²
5 | COc1c(O)cc2oc(-c3ccc(O)cc3)cc(=O)c2c1O [Hispidulin] | 165.52 ± 0.17 | –
6 | CC1(C)CC[C@]2(C(=O)O)CC[C@]3(C)C(=CC[C@@H]4[C@@]5(C)C[C@H](O)[C@H](O)[C@@](C)(CO)[C@@H]5CC[C@]43C)[C@@H]2C1 [bayogenin] | 225.09 ± 0.24 | TIMS collision cross section in N2 (ion species: [M-H+HCO2H]-): 234.73 ± 0.27 Å²
7 | O=c1c(O)c(-c2ccc(O)cc2)oc2cc(O)cc(O)c12 [Kaempferol] | 161.08 ± 0.12 | TIMS collision cross section in N2 (ion species: [2M-H]-): 234.8 ± 0.14 Å²
8 | COc1ccc(CCC(=O)c2c(O)cc(O[C@@H]3O[C@H](CO)[C@@H](O)[C@H](O)[C@H]3O[C@@H]3O[C@@H](C)[C@H](O)[C@@H](O)[C@H]3O)cc2O)cc1O [neohesperidin dihydrochalcone] | 232.21 ± 0.35 | –
9 | O=c1c(-c2ccc(O)cc2)coc2cc(O)c(O)cc12 [6,7,4'-Trihydroxyisoflavone] | 159.49 ± 0.16 | TIMS collision cross section in N2 (ion species: [2M-H]-): 249.43 ± 0.37 Å²
10 | O=C1CC(c2ccccc2)Oc2c(O)ccc(O)c21 (stereo not given) [5,8-Dihydroxyflavanone] | 158.38 ± 0.01 | –
11 | O=c1cc(-c2ccc(O)c(O[C@@H]3OC(CO)[C@@H](O)[C@@H](O)C3O)c2)oc2cc(O[C@@H]3OC(CO)[C@@H](O)[C@@H](O)C3O)cc(O)c12 (stereo not given in full) [Luteolin-7,3'-di-O-glucoside] | 236.98 ± 0.087 | –
12 | C[C@H]1[C@H](C)CC[C@]2(C(=O)O)CC[C@]3(C)C(=CC[C@@H]4[C@@]5(C)C[C@@H](O)[C@H](O)C(C)(C)[C@@H]5CC[C@]43C)[C@H]12 [Corosolic acid] | 220.34 ± 0.4 | TIMS collision cross section in N2 (ion species: [M-H+Na+HCO2H]-): 231.55 ± 0.4 Å²
13 | COc1ccc(-c2cc3ccc(O)cc3oc2=O)cc1 [7-hydroxy 3(4- methoxyphenyl) coumarin] | 162.79 ± 0.25 | –
14 | O=c1cc(-c2cc(O)c(O)c(O)c2)oc2cc(O)ccc12 [7,3',4',5'-Tetrahydroxyflavone] | 161.92 ± 0.042 | –
15 | COc1ccc(-c2cc(=O)c3ccc(O)cc3o2)cc1 [7-Hydroxy-4'-methoxyflavone] | 165.03 ± 0.085 | TIMS collision cross section in N2 (ion species: [2M-H]-): 231.78 ± 0.34 Å²
16 | CCCCCCCCCCCCCCCC(=O)O [Palmitic acid] | 170.37 ± 0.16 | –
17 | CCCCCCCCCCCCCCCCCC(=O)O [Stearic acid] | 178.54 ± 0.015 | –
18 | CC1(C)CC[C@]2(C(=O)O)CC[C@]3(C)C(=CC[C@@H]4[C@@]5(C)CC[C@H](O)[C@@](C)(CO)[C@@H]5CC[C@]43C)[C@@H]2C1 [Hederagenin] | 222.47 ± 0.52 | TIMS collision cross section in N2 (ion species: [M-H+Na+HCO2H]-): 234.04 ± 0.57 Å²
19 | COc1ccc(-c2oc3cc(O)cc(O)c3c(=O)c2O)cc1 [Kaempferide] | 167.04 ± 0.26 | –

Row | SMILES | TIMS collision cross section in N2 (ion species: [M-H]-) [Å²] | also measured
20 | COc1ccc(C2CC(=O)c3ccc(O)cc3O2)cc1OC (stereo not given) [3',4'-Dimethoxy-7-hydroxyflavanone] | 180.72 ± 0.067 | TIMS collision cross section in N2 (ion species: [2M-H]-): 241.38 ± 0.035 Å²
21 | COc1ccc(-c2cc3ccc(O)cc3oc2=O)cc1OC [3(3',4'-Dimethoxyphenyl)-7-hydroxycoumarin] | 172.02 ± 0.17 | TIMS collision cross section in N2 (ion species: [2M-H]-): 276.72 ± 0.47 Å²
22 | COc1ccc(C2CC(=O)c3c(O)cccc3O2)cc1OC (stereo not given) [5-Hydroxy-3',4'-dimethoxyflavanone] | 174.21 ± 0.21 | TIMS collision cross section in N2 (ion species: [M-H+Na+HCO2H]-): 187.65 ± 0.61 Å²
23 | COc1cc2oc(-c3ccc(O)cc3)cc(=O)c2c(O)c1O [Sorbifolin] | 166.28 ± 0.23 | –
24 | COc1ccc(-c2cc(=O)c3c(O)c(OC)c(O)c(OC)c3o2)cc1OC [Hymenoxin] | 190.48 ± 0.09 | TIMS collision cross section in N2 (ion species: [M-H+Na+HCO2H]-): 207.1 ± 0.28 Å²
25 | COc1ccc(C2CC(=O)c3c(O)cc(OC)cc3O2)cc1 (stereo not given) [7,4'-Dimethoxy-5-hydroxyflavanone] | 175.55 ± 0.29 | TIMS collision cross section in N2 (ion species: [M-H+Na+HCO2H]-): 194.46 ± 0.47 Å²
26 | C[C@H]1[C@H](C)CC[C@]2(C(=O)O)CC[C@]3(C)C(=CC[C@@H]4[C@@]5(C)C[C@@H](O)[C@@H](O)C(C)(C)[C@@H]5CC[C@]43C)[C@H]12 [Pygenic acid A] | 220.9 ± 0.38 | –
27 | Cc1c(O)c(C)c2c(c1O)C(=O)C[C@@H](c1ccc(O)cc1)O2 [Farrerol] | 172.28 ± 0.21 | TIMS collision cross section in N2 (ion species: [M-H+Na+HCO2H]-): 186.6 ± 0.36 Å²
28 | O=c1cc(-c2ccc(O)c(O)c2)oc2cccc(O)c12 [5,3',4'-Trihydroxyflavone] | 156.4 ± 0.18 | TIMS collision cross section in N2 (ion species: [2M-H]-): 244.46 ± 0.1 Å²
29 | COc1cccc(-c2cc(=O)c3ccc(O)cc3o2)c1 [7-Hydroxy-3'-methoxyflavone] | 165.22 ± 0.11 | TIMS collision cross section in N2 (ion species: [2M-H]-): 229.62 ± 0.17 Å²
30 | C[C@H]1[C@H](C)CC[C@]2(C(=O)O)CC[C@]3(C)C(=CC[C@@H]4[C@@]5(C)C[C@@H](O)[C@H](O)[C@@](C)(CO)[C@@H]5[C@H](O)C[C@]43C)[C@H]12 [Madecassic acid] | 223.91 ± 0.25 | –
31 | O=c1cc(-c2ccc(O)cc2)oc2ccccc12 [4'-Hydroxyflavone] | 151.91 ± 0.13 | –
32 | O=c1cc(-c2ccc(O)cc2)oc2cc(O)ccc12 [7,4'-dihydroxyflavone] | 157.01 ± 0.16 | TIMS collision cross section in N2 (ion species: [2M-H]-): 221.31 ± 0.038 Å²
33 | O=C(N[C@@H](CSCc1ccccc1)C(=O)O)OCc1ccccc1 [S-Benzyl-N-carbobenzyloxy-L-cysteine] | 264.84 ± 0.64 | –
34 | Oc1ccc(/C=C/c2cc(O)cc(O)c2)cc1 [Resveratrol] | 157.41 ± 0.0058 | –
35 | O=c1c(O)c(-c2cc(O)c(O)c(O)c2)oc2cc(O)ccc12 [3,7,3',4',5'-Pentrahydroxyflavone (robinetin)] | 164.55 ± 0.2 | TIMS collision cross section in N2 (ion species: [M-3H]-): 160.55 ± 0.095 Å²
36 | CCCCCCCCO[C@@H]1O[C@H](CO)[C@@H](O)[C@H](O)[C@H]1O [n-Octyl-beta-D-glucopyranoside] | 181.3 ± 0.15 | TIMS collision cross section in N2 (ion species: [2M-H]-): 272.83 ± 0.74 Å²; TIMS collision cross section in N2 (ion species: [M-H+HCO2H]-): 190.02 ± 0.2 Å²
37 | CCCCCCCCCCO[C@@H]1O[C@H](CO)[C@@H](O)[C@H](O)[C@H]1O [n-Decyl-beta-D-glucopyranoside] | 189.39 ± 0.39 | TIMS collision cross section in N2 (ion species: [2M-H]-): 277.92 ± 0.32 Å²; TIMS collision cross section in N2 (ion species: [M-H+HCO2H]-): 198.21 ± 0.31 Å²
38 | O=C1C[C@@H](c2ccc(O)cc2)Oc2cc(O)cc(O)c21 [Naringenin] | 163.01 ± 0.16 | –

Source: the supplement of paper PMC7023306
